Test results reported in US8552013B2, “Heterocyclic compounds based on N6-substituted adenine, methods of their preparation, their use for preparation of drugs, cosmetic preparations and growth regulators, pharmaceutical preparations, cosmetic preparations and growth regulators containing these compounds” (USTAV Experimentalni Botaniky Akademie Ved Ceske Republiky, priority 2001, dated 2013).
Like-named read-outs stand apart in the source and are kept apart here.

Assays:
[1] = tested on: tobacco callus Nicotiana tabacum L. cv. Wisconsin 38; assay: Cytokinin-dependent tobacco callus growth; assay type: cell-based; conditions: fresh callus weight at the concentration with highest activity
Protocol: Cytokinin-dependent tobacco callus Nicotiana tabacum L. cv. Wisconsin 38 was maintained at 25° C. in darkness on modified Murashige-Skoog medium, containing per 1 liter: 4 μmol nicotinic acid, 2.4 μmol pyridoxine hydrochloride, 1.2 μmol thiamine, 26.6 μmol glycine, 1.37 μmol glutamine, 1.8 μmol myo-inositol, 30 g of sucrose, 8 g of agar, 5.37 μmol α-naphtylacetic acid (NAA) and 0.5 μmol benzylaminopurine (BAP). Subcultivation was carried out every three weeks. Fourteen days before the bioassay, the callus tissue was transferred to the media without 6-benzylaminopurine (BAP). Biological activity was determined from the increase in fresh callus weight after four weeks of cultivation. Five replicates were prepared for each cytokinin concentration and the entire test was repeated twice. From the obtained data, the concentration with highest activity was selected for each compound tested. Relative activity of the compound at this concentration was calculated (Tab. 6). The activity obtained for 10^−4 M 6-benzylaminopurine (BAP) was postulated as 100%. The cytokinins to be tested were dissolved in dimethylsulfoxide (DMSO) and the solution brought up to 10^−3M with distilled water. This stock was further diluted in the respective media used for the biotest to concentrations ranging from 10^−8M to 10^−4M.

[2] = tested on: Triticum aestivum cv. Hereward leaf tips; assay: Retention of chlorophyll in excised wheat leaf tips; assay type: in vivo; conditions: chlorophyll retention at the concentration with highest activity
Protocol: Seeds of winter wheat, Triticum aestivum cv. Hereward, were washed under running water for 24 hours and then sown on vermiculite soaked with Knop's solution. They were placed in the grown chamber at 25° C. with a 16/8 h light period at 50 μmol.m^−2.s^−1. After 7 days, the first leaf was fully developed and the second leaf had started to grow. A tip section of the first leaf, approximately 35 mm long, was removed from 5 seedlings and trimmed slightly to a combined weight of 100 mg. The basal ends of the five leaf tips were placed in the wells of a microtiter polystyrene plate containing 150 μl of a cytokinin solution each. The entire plate was inserted into a plastic box lined with paper tissues soaked in distilled water to prevent leaf sections from drying out. After a 96 h incubation in the dark at 25° C., the leaves were removed and chlorophyll extracted by heating at 80° C. for 10 min in 5 ml of 80% ethanol (v/v). The sample volume was then restored to 5 ml by the addition of 80% ethanol (v/v). The absorbency of the extract was recorded at 665 nm. In addition, chlorophyll extracts from fresh leaves and leaf tips incubated in deionised water were measured. From the obtained data, the concentration with highest activity was selected for each compound tested. Relative activity of the compound at this concentration was calculated (Tab. 6). The activity obtained for 10^−4 M 6-benzylaminopurine (BAP) was postulated as 100%. The values shown are means of five replicates and the whole experiment was repeated twice. The cytokinins to be tested were dissolved in dimethylsulfoxide (DMSO) and the solution brought up to 10^−3M with distilled water. This stock was further diluted in distilled water to concentrations ranging from 10^−8M to 10^−4M.

[3] = tested on: Amaranthus caudatus cotyledon/hypocotyl explants; assay: Amaranthus bioassay, betacyanin content; assay type: in vivo; conditions: betacyanin content at the concentration with highest activity
Protocol: Standard Amaranthus bioassay was performed with several modifications. The seeds of Amaranthus caudatus var. atropurpurea were surface-sterilised in 10% N-chlorobenzenesulfonamide (w/v) for 10 min and washed 5 times in deionized water. They were placed in 14 cm Petri dishes containing paper tissues saturated with deionized water. After 72 h of cultivation at 25° C. in darkness, the roots of the seedlings were cut off. The explants, consisting of two cotyledons and hypocotyls, were placed in 5 cm Petri dishes on two layers of filter paper soaked in 1 ml of incubation medium containing 10 μmol NA2HPO4-KH2PO4, pH 6.8, 5 μmol tyrosine and the cytokinin to be tested. There were 20 explants per dish. The procedure was carried out under a green safe light in a darkroom. After a 48 h of incubation at 25° C. in darkness, betacyanin was extracted by freezing the explants in 4 ml […] acetic acid. The concentration of betacyanin was determined by comparing the absorbance at 537 nm and 620 nm as follows: ΔA=[…] nm-A620 nm. From the obtained data, the concentration with highest activity was selected for each compound tested. Relative activity of the compound at this concentration was calculated (Tab. 6). […] The values shown in table 8 are means of five replicates and the entire test was repeated twice. The cytokinins to be tested were dissolved in dimethylsulfoxide (DMSO) and the solution brought up to 10^-3M with distilled water. This stock was further diluted in the respective media used for the biotest to concentrations ranging from 10^-8M to 10^-4M.

[4] = tested on: breast carcinoma cell line MCF-7; assay: Calcein AM cytotoxicity, MCF7; assay type: cell-based, human; conditions: Homo sapiens, read-out: IC 50, MCF7
Excerpt: (§1) One of the parameters used, as the basis for cytotoxicity assays, is the metabolic activity of viable cells. For example, a microtiter assay, which uses the Calcein AM, is now widely used to quantitate cell proliferation and cytotoxicity. For instance, this assay is used in drug screening programs and in chemosensitivity testing. Because only metabolically active cells cleave Calcein AM, these assays detect viable cells exclusively. The quantity of reduced Calcein AM corresponds to the number of vital cells in the culture.
(§2) The cells were maintained in Nunc/Corning 80 cm^2 plastic tissue culture flasks and cultured in cell culture medium (DMEM with 5 g/l glucose, 2 mM glutamine, 100 U/ml penicillin, 100 μg/ml streptomycin, 10% fetal calf serum and sodium bicarbonate).
(§3) The cell suspensions that were prepared and diluted according to the particular cell type and the expected target cell density (2.500-30.000 cells per well based on cell growth characteristics) were added by pipette (80 μl) into 96/well microtiter plates. Inoculates were allowed a pre-incubation period of 24 hours at 37° C. and 5% CO2 for stabilisation. Four-fold dilutions of the intended test concentration were added at time zero in 20 μl aliquots to the microtiter plate wells. Usually, test compound was evaluated at six 4-fold dilutions. […] All drug concentrations were examined in duplicates. Incubations of cells with the test compounds lasted for 72 hours at 37° C., in 5% CO2 atmosphere and 100% humidity. At the end of incubation period, the cells were assayed by using the Calcein AM. Ten microliters of the stock solution were pipetted into each well and incubated further for 1 hours. Fluorescence (FD) was measured with the Labsystem FIA Reader Fluoroscan Ascent (UK).

[5] = tested on: T-lymphoblastic leukemia cell line CEM; assay: Calcein AM cytotoxicity, CEM; assay type: cell-based, human; conditions: Homo sapiens
Excerpt: as §1, §2, §3

K-562 = assay: Calcein AM cytotoxicity, K-562; assay type: cell-based; conditions: Homo sapiens, K562, 72 h, read-out: IC 50, K-562
Excerpt: as §1, §2, §3

[6] = tested on: promyelocytic HL-60 leukemia; assay: Calcein AM cytotoxicity, HL60; assay type: cell-based, human; conditions: Homo sapiens, read-out: IC 50, HL60
Excerpt: as §1, §2, §3

HOS = assay: Calcein AM cytotoxicity, HOS; assay type: cell-based; conditions: Homo sapiens, HOS, 72 h
Excerpt: as §1
Human T-lymphoblastic leukemia cell line CEM; promyelocytic HL-60 and monocytic U937 leukemias; breast carcinoma cell lines MCF-7, BT549, MDA-MB-231; glioblastoma U87MG cells; cervical carcinoma cells HELA; sarcoma cells U2OS and Saos2; hepatocellular carcinoma HepG2; mouse fibroblasts NIH3T3; mouse immortalized bone marrow macrophages B2.4 and B10A.4; P388D1 and L1210 leukemia; B16 and B16F10 melanomas were used for routine screening of compounds. The cells were maintained in Nunc/Corning 80 cm^2 plastic tissue culture flasks and cultured in cell culture medium (DMEM with 5 g/l glucose, 2 mM glutamine, 100 U/ml penicillin, 100 μg/ml streptomycin, 10% fetal calf serum and sodium bicarbonate).
The cell suspensions that were prepared and diluted according to the particular cell type and the expected target cell density (2.500-30.000 cells per well based on cell growth characteristics) were added by pipette (80 μl) into 96/well microtiter plates. Inoculates were allowed a pre-incubation period of 24 hours at 37° C. and 5% CO2 for stabilisation. Four-fold dilutions of the intended test concentration were added at time zero in 20 μl aliquots to the microtiter plate wells. Usually, test compound was evaluated at six 4-fold dilutions. In routine testing, the highest well concentration was […], but it can be the matter of change dependent on the agent. All drug concentrations were examined in duplicates. Incubations of cells with the test compounds lasted for 72 hours at 37° C., in 5% CO2 atmosphere and 100% humidity. At the end of incubation period, the cells were assayed by using the Calcein AM. Ten microliters of the stock solution were pipetted into each well and incubated further for 1 hours. Fluorescence (FD) was measured with the Labsystem FIA Reader Fluoroscan Ascent (UK). The tumour cell survival (GI50) was calculated using the following equitation: TCS═(FDdrug exposed well/mean FDcontrol wells)×100%. The GI50 value, the drug concentration lethal to 50% of the tumour cells, was calculated from the obtained dose response curves (FIG. 1).

Row | SMILES | Activity (%) [10^−4 mol · l^−1 BAP = 100%] [1] | Activity (%) [10^−4 mol · l^−1 BAP = 100%] [2] | activity (%) [10^−5 mol · l^−1 BAP = 100%] [3] | IC50 ([4]; MCF7, 72 h) | IC50 ([5]; 72 h) | IC50 (K-562) | IC50 ([6]; HL-60, 72 h) | also measured
1 | Brc1cccc(CNc2ncnc3nc[nH]c23)c1 [6-(3-bromobenzylamino)purine] | 85 (±11) % | 48 (±6) % | 71 (±5) % |  |  |  |  | 
2 | O=[N+]([O-])c1cccc(CNc2ncnc3nc[nH]c23)c1 [6-(3-nitrobenzylamino)purine] |  | 60 (±15) % | 66 (±7) % | > 167 µM | > 167 µM | > 167 µM | > 167 µM | 
3 | Brc1ccc(CNc2ncnc3nc[nH]c23)cc1 [6-(4-bromobenzylamino)purine] | 15 (±9) % | 30 (±15) % | 17 (±7) % |  |  |  |  | 
4 | Fc1ccc(CNc2ncnc3nc[nH]c23)cc1 [6-(4-fluorobenzylamino)purine] | 122 (±12) % | 95.5 (±3.5) % | 44 (±4) % |  |  |  |  | IC50 (HOS): > 167 µM
5 | Nc1ncnc2nc[nH]c12 [Adenine] |  |  |  | > 167 µM | > 167 µM | > 167 µM | > 167 µM | 
6 | C/C(=C\CNc1ncnc2[nH]cnc12)CO [Zeatin, reference compound] |  |  |  |  |  |  |  | IC50 ([4]; MCF7, 72 hours): > 167 µM; IC50 ([5]; 72 hours): > 167 µM; IC50 ([6]; HL-60, 72 hours): > 167 µM
